Columns and labels:
[1] = Example 2.1 rhamnolipid precipitation, filtration, centrifugation: lead; details: for Treatment 2: Rhamnolipid and Filtration Cf / Treatment 3: Rhamnolipid and Centrifugation Cc / Treatment 1: Rhamnolipid Only Cr: lead concentration after treatment; for Treatment 1: Rhamnolipid Only (Rr) efficiency of removal / Treatment 2: Rhamnolipid and Filtration (Rf) efficiency of removal / Treatment 3: Rhamnolipid and Centrifugation (Rc) efficiency of removal: lead
Summary of the method: (§1)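 Metal nitrate solutions (5 mM stock) mixed with pH 6.9 glycolipid solution (10 mM stock) at glycolipid:metal molar ratios 0:1, 2:1, 5:1, 10:1, overnight (16–24 h), in triplicate. Remaining metal measured by ICP-MS in vortexed whole sample, 0.45 μm filtrate, or supernatant after 10,000 RCF, 15 min.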

[2] = Example 2.1 rhamnolipid precipitation, filtration, centrifugation: magnesium; details: for Treatment 2: Rhamnolipid and Filtration Cf / Treatment 3: Rhamnolipid and Centrifugation Cc / Treatment 1: Rhamnolipid Only Cr: magnesium concentration after treatment
Summary of the method: as §1

## CCCCCCCCCC(CC(=O)O)OC(=O)CC(CCCCCCCCC)OC1O[C@@H](C)[C@H](O)[C@@H](O)[C@H]1O (stereo partly drawn) [Rha C12C12, rhamnosyl-β-hydroxydodecanoyl-62-hydroxydodecanoate]
[1]; molar ratio 2 to 1
  Treatment 2: Rhamnolipid and Filtration Cf: 0.069 ± 0.018 mmol/L
  Treatment 3: Rhamnolipid and Centrifugation Cc: 0.146 ± 0.008 mmol/L
  Treatment 1: Rhamnolipid Only (Rr) efficiency of removal: (22.4%)
  Treatment 2: Rhamnolipid and Filtration (Rf) efficiency of removal: (74.8%)
  Treatment 3: Rhamnolipid and Centrifugation (Rc) efficiency of removal: (46.4%)
[1]; molar ratio 5 to 1
  Treatment 1: Rhamnolipid Only Cr: 0.204 ± 0.004 mmol/L
  Treatment 2: Rhamnolipid and Filtration Cf: 0.049 ± 0.021 mmol/L
  Treatment 3: Rhamnolipid and Centrifugation Cc: 0.047 ± 0.003 mmol/L
  Treatment 1: Rhamnolipid Only (Rr) efficiency of removal: (25.0%)
  Treatment 2: Rhamnolipid and Filtration (Rf) efficiency of removal: (81.8%)
  Treatment 3: Rhamnolipid and Centrifugation (Rc) efficiency of removal: (82.8%)
[1]; molar ratio 10 to 1
  Treatment 1: Rhamnolipid Only Cr: 0.249 ± 0.10 mmol/L
  Treatment 2: Rhamnolipid and Filtration Cf: 0.059 ± 0.028 mmol/L
  Treatment 3: Rhamnolipid and Centrifugation Cc: 0.129 ± 0.002 mmol/L
  Treatment 1: Rhamnolipid Only (Rr) efficiency of removal: (8.6%)
  Treatment 2: Rhamnolipid and Filtration (Rf) efficiency of removal: (78.3%)
  Treatment 3: Rhamnolipid and Centrifugation (Rc) efficiency of removal: (52.8%)
[1]; molar ratio rhamnolipid:lead 2 to 1
  Treatment 1: Rhamnolipid Only Cr: 0.211 ± 0.010 mmol/L
[2]; molar ratio 2 to 1
  Treatment 2: Rhamnolipid and Filtration Cf: 0.182 ± 0.055 mmol/L
  Treatment 3: Rhamnolipid and Centrifugation Cc: 0.276 ± 0.005 mmol/L
[2]; molar ratio 5 to 1
  Treatment 1: Rhamnolipid Only Cr: 0.285 ± 0.005 mmol/L
  Treatment 2: Rhamnolipid and Filtration Cf: 0.135 ± 0.074 mmol/L
  Treatment 3: Rhamnolipid and Centrifugation Cc: 0.273 ± 0.014 mmol/L
[2]; molar ratio 10 to 1
  Treatment 1: Rhamnolipid Only Cr: 0.285 ± 0.012 mmol/L
  Treatment 2: Rhamnolipid and Filtration Cf: 0.008 ± 0.004 mmol/L
  Treatment 3: Rhamnolipid and Centrifugation Cc: 0.266 ± 0.012 mmol/L
[2]; molar ratio rhamnolipid:magnesium 2 to 1
  Treatment 1: Rhamnolipid Only Cr: 0.281 ± 0.002 mmol/L
[2]; magnesium, molar ratio 2 to 1
  Treatment 2: Rhamnolipid and Filtration (Rf) efficiency of removal: (32.1%)
[2]; magnesium, molar ratio 5 to 1
  Treatment 2: Rhamnolipid and Filtration (Rf) efficiency of removal: (49.4%)
[2]; magnesium, molar ratio 10 to 1
  Treatment 2: Rhamnolipid and Filtration (Rf) efficiency of removal: (97.1%)
  Treatment 3: Rhamnolipid and Centrifugation (Rc) efficiency of removal: (0.4%)

From patent publication US20240182513A1, “SEPARATION OF METAL IONS FROM A SAMPLE USING GLYCOLIPIDS” (ARIZONA BOARD OF REGENTS ON BEHALF OF THE UNIVERSITY OF …, priority 2021, published 2024)
